test: Thioether (C-S) macrocyclisation: SN2' of the free C-terminal Cys-NH2 thiol on an N-terminal O-acetyl Morita-Baylis-Hillman (2-methylene-3-acetoxyacyl) residue, Et3N 3% v/v, 48 h; crude cleaved linear peptides; details: the molecule shown is the open-chain precursor, 16-membered ring, dry THF/CH2Cl2 1:1, 1.0 mM, 25.0 °C, 11 steps

Q: Which ring closure, overall yield does the source give for `C=C(C(=O)N[C@@H](Cc1ccccc1)C(=O)N[C@H](CC(C)C)C(=O)N[C@H](C)C(=O)N[C@@H](CS)C(N)=O)C(CCCCCC)OC(C)=O` (stereo partly drawn) [n-C6H13CH(OAc)C(=CH2)CO-Phe-D-Leu-D-Ala-Cys-NH2] here?
A: 11.8%

Q: With `C=C(C(=O)N[C@@H](Cc1ccccc1)C(=O)N[C@@H](CC(C)C)C(=O)N[C@H](C)C(=O)N[C@@H](CS)C(N)=O)C(CCCCCC)OC(C)=O` (stereo partly drawn) [n-C6H13CH(OAc)C(=CH2)CO-Phe-Leu-D-Ala-Cys-NH2] as the compound, how does the ring closure, overall yield read?
A: 4.7%

Q: Which ring closure, overall yield does the source give for `C=C(C(=O)N[C@@H](Cc1ccccc1)C(=O)N[C@@H](CC(C)C)C(=O)N[C@@H](C)C(=O)N[C@@H](CS)C(N)=O)C(C)OC(C)=O` (stereo partly drawn) [CH3CH(OAc)C(=CH2)CO-Phe-Leu-Ala-Cys-NH2] here?
A: 10.2%

Q: With `C=C(C(=O)N[C@@H](Cc1ccccc1)C(=O)N[C@H](CC(C)C)C(=O)N[C@H](C)C(=O)N[C@@H](CS)C(N)=O)C(C)OC(C)=O` (stereo partly drawn) [CH3CH(OAc)C(=CH2)CO-Phe-D-Leu-D-Ala-Cys-NH2] as the compound, how does the ring closure, overall yield read?
A: 7.3%

Q: With `C=C(C(=O)N[C@@H](Cc1ccccc1)C(=O)N[C@@H](CC(C)C)C(=O)N[C@H](C)C(=O)N[C@@H](CS)C(N)=O)C(C)OC(C)=O` (stereo partly drawn) [CH3CH(OAc)C(=CH2)CO-Phe-Leu-D-Ala-Cys-NH2] as the compound, how does the ring closure, overall yield read?
A: 2.7%

Q: For `C=C(C(=O)N[C@@H](C)C(=O)N[C@@H](CC(C)C)C(=O)N[C@@H](Cc1ccccc1)C(=O)N[C@@H](CS)C(N)=O)C(C)OC(C)=O` (stereo partly drawn) [CH3CH(OAc)C(=CH2)CO-Ala-Leu-Phe-Cys-NH2], which ring closure, overall yield is on record?
A: 14.8%

Q: With `C=C(C(=O)N[C@@H](Cc1ccccc1)C(=O)N[C@H](CC(C)C)C(=O)N[C@@H](C)C(=O)N[C@@H](CS)C(N)=O)C(C)OC(C)=O` (stereo partly drawn) [CH3CH(OAc)C(=CH2)CO-Phe-D-Leu-Ala-Cys-NH2] as the compound, how does the ring closure, overall yield read?
A: 14.4%
